# In the supplement of paper PMC13207355:
# How the values were obtained:
# Details in all cases: exposure time: 72 h
# E21 [1] = patient-derived glioblastoma stem cells of mesenchymal subtype; experiment: phenotypic distance (Euclidean, principal components) from DMSO controls (arbitrary units); higher = stronger morphological change
# E28 [2] = patient-derived glioblastoma stem cells of classical subtype; experiment: as above
# FT3469 [3] = normal neural stem cell line; experiment: as above
# E31 [4] = patient-derived glioblastoma stem cells of proneural subtype; experiment: as above
# E57 [5] = patient-derived glioblastoma stem cells of mesenchymal subtype; experiment: as above
# E13 [6] = patient-derived glioblastoma stem cells of classical subtype; experiment: as above
# E34 [7] = patient-derived glioblastoma stem cells of proneural subtype; experiment: as above
# E21 [8] = experiment: surviving fraction (nuclei count normalised to DMSO); higher = more cells surviving (less toxic)
# E28 [9] = experiment: as above
# FT3469 [10] = experiment: as above
# E31 [11] = experiment: as above
# E57 [12] = experiment: as above
# E13 [13] = experiment: as above
# E34 [14] = experiment: as above
# 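Wherever phenotypic distance (Euclidean, principal components) from DMSO controls is given: cell Painting imaging in 384-well plates, CellProfiler features reduced to at least 20 principal components, Euclidean distance versus same-plate DMSO vehicle wells (0.1% v/v), median over six images per well.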
# 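Wherever surviving fraction (nuclei count normalised to DMSO) is given: nuclei counted by high-content imaging of Hoechst-stained cells in laminin-coated 384-well plates, relative to 0.1% DMSO vehicle wells, with staurosporine as cell-death control.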
compound,measurement,setting,value
CN(C)C(=O)Oc1ccc[n+](C)c1 [Pyridostigmine iodide],phenotypic distance,E21 [1]; 4.1 nM,0.939
same,phenotypic distance,E21 [1]; 12.3 nM,0.565
same,phenotypic distance,E21 [1]; 37 nM,0.637
same,phenotypic distance,E21 [1]; 111.1 nM,0.901
same,phenotypic distance,E21 [1]; 333.3 nM,3.46
same,phenotypic distance,E21 [1]; 1000 nM,1.09
same,phenotypic distance,E21 [1]; 3000 nM,1.02
same,phenotypic distance,E28 [2]; 4.1 nM,0.458
same,phenotypic distance,E28 [2]; 12.3 nM,0.757
same,phenotypic distance,E28 [2]; 37 nM,0.73
same,phenotypic distance,E28 [2]; 111.1 nM,0.63
same,phenotypic distance,E28 [2]; 333.3 nM,0.567
same,phenotypic distance,E28 [2]; 1000 nM,0.651
same,phenotypic distance,E28 [2]; 3000 nM,0.684
same,phenotypic distance,FT3469 [3]; 4.1 nM,0.42
same,phenotypic distance,FT3469 [3]; 12.3 nM,0.709
same,phenotypic distance,FT3469 [3]; 37 nM,0.762
same,phenotypic distance,FT3469 [3]; 111.1 nM,0.872
same,phenotypic distance,FT3469 [3]; 333.3 nM,0.927
same,phenotypic distance,FT3469 [3]; 1000 nM,0.794
same,phenotypic distance,FT3469 [3]; 3000 nM,1.39
same,phenotypic distance,E31 [4]; 4.1 nM,0.409
same,phenotypic distance,E31 [4]; 12.3 nM,0.507
same,phenotypic distance,E31 [4]; 37 nM,0.601
same,phenotypic distance,E31 [4]; 111.1 nM,0.878
same,phenotypic distance,E31 [4]; 333.3 nM,0.996
same,phenotypic distance,E31 [4]; 1000 nM,2.91
same,phenotypic distance,E31 [4]; 3000 nM,0.798
same,phenotypic distance,E57 [5]; 4.1 nM,0.948
same,phenotypic distance,E57 [5]; 12.3 nM,0.52
same,phenotypic distance,E57 [5]; 37 nM,0.595
same,phenotypic distance,E57 [5]; 111.1 nM,0.71
same,phenotypic distance,E57 [5]; 333.3 nM,0.854
same,phenotypic distance,E57 [5]; 1000 nM,0.982
same,phenotypic distance,E57 [5]; 3000 nM,0.881
same,phenotypic distance,E13 [6]; 4.1 nM,0.653
same,phenotypic distance,E13 [6]; 12.3 nM,0.436
same,phenotypic distance,E13 [6]; 37 nM,0.527
same,phenotypic distance,E13 [6]; 111.1 nM,0.34
same,phenotypic distance,E13 [6]; 333.3 nM,0.667
same,phenotypic distance,E13 [6]; 1000 nM,0.894
same,phenotypic distance,E13 [6]; 3000 nM,1.1
same,phenotypic distance,E34 [7]; 4.1 nM,0.578
same,phenotypic distance,E34 [7]; 12.3 nM,0.331
same,phenotypic distance,E34 [7]; 37 nM,1.86
same,phenotypic distance,E34 [7]; 111.1 nM,0.616
same,phenotypic distance,E34 [7]; 333.3 nM,0.79
same,phenotypic distance,E34 [7]; 1000 nM,0.731
same,phenotypic distance,E34 [7]; 3000 nM,0.846
same,surviving fraction,E21 [8]; 4.1 nM,0.969
same,surviving fraction,E21 [8]; 12.3 nM,1.03
same,surviving fraction,E21 [8]; 37 nM,1.08
same,surviving fraction,E21 [8]; 111.1 nM,0.887
same,surviving fraction,E21 [8]; 333.3 nM,0.981
same,surviving fraction,E21 [8]; 1000 nM,0.99
same,surviving fraction,E21 [8]; 3000 nM,1.04
same,surviving fraction,E28 [9]; 4.1 nM,1.07
same,surviving fraction,E28 [9]; 12.3 nM,0.975
same,surviving fraction,E28 [9]; 37 nM,1.02
same,surviving fraction,E28 [9]; 111.1 nM,1.05
same,surviving fraction,E28 [9]; 333.3 nM,0.949
same,surviving fraction,E28 [9]; 1000 nM,1.18
same,surviving fraction,E28 [9]; 3000 nM,0.96
same,surviving fraction,FT3469 [10]; 4.1 nM,1.01
same,surviving fraction,FT3469 [10]; 12.3 nM,1.12
same,surviving fraction,FT3469 [10]; 37 nM,1.2
same,surviving fraction,FT3469 [10]; 111.1 nM,1.07
same,surviving fraction,FT3469 [10]; 333.3 nM,1.12
same,surviving fraction,FT3469 [10]; 1000 nM,1.06
same,surviving fraction,FT3469 [10]; 3000 nM,1.15
same,surviving fraction,E31 [11]; 4.1 nM,0.967
same,surviving fraction,E31 [11]; 12.3 nM,1.05
same,surviving fraction,E31 [11]; 37 nM,0.914
same,surviving fraction,E31 [11]; 111.1 nM,1.02
same,surviving fraction,E31 [11]; 333.3 nM,1.07
same,surviving fraction,E31 [11]; 1000 nM,0.944
same,surviving fraction,E31 [11]; 3000 nM,0.851
same,surviving fraction,E57 [12]; 4.1 nM,1.16
same,surviving fraction,E57 [12]; 12.3 nM,1.04
same,surviving fraction,E57 [12]; 37 nM,0.923
same,surviving fraction,E57 [12]; 111.1 nM,0.99
same,surviving fraction,E57 [12]; 333.3 nM,0.98
same,surviving fraction,E57 [12]; 1000 nM,1.01
same,surviving fraction,E57 [12]; 3000 nM,0.937
same,surviving fraction,E13 [13]; 4.1 nM,1.02
same,surviving fraction,E13 [13]; 12.3 nM,1.15
same,surviving fraction,E13 [13]; 37 nM,1.04
same,surviving fraction,E13 [13]; 111.1 nM,0.975
same,surviving fraction,E13 [13]; 333.3 nM,1.06
same,surviving fraction,E13 [13]; 1000 nM,1.03
same,surviving fraction,E13 [13]; 3000 nM,0.989
same,surviving fraction,E34 [14]; 4.1 nM,1.17
same,surviving fraction,E34 [14]; 12.3 nM,0.894
same,surviving fraction,E34 [14]; 37 nM,1.01
same,surviving fraction,E34 [14]; 111.1 nM,0.914
same,surviving fraction,E34 [14]; 333.3 nM,0.904
same,surviving fraction,E34 [14]; 1000 nM,1.05
same,surviving fraction,E34 [14]; 3000 nM,1.24
